The subject of data set [1] is BMMC. The data set is described as follows: Cytotoxicity against C57BL/6 mouse BMMC at 5 to 20 uM after 3 days in presence of M-CSF/RANKL by MTT assay. Format: cell-based. The following applies: 72 h. (In general: Tetrazolium dyes change colour on reduction, which living cells bring about.)
Data set [2] deals with BMMC. The data set is described as follows: Reduction in M-CSF/RANKL-induced NFATc1 mRNA levels in C57BL/6 mouse BMMC at 20 uM after 3 days by RT-qPCR analysis. Format: functional, cell-based. (Quantitative PCR measures a nucleic acid by following its amplification.)
The subject of data set [3] is BMMC. The data set is described as follows: Inhibition of M-CSF/RANKL-induced osteoclast differentiation in C57BL/6 mouse BMMC assessed as decrease in multinucleated TRAP+ cells after 3 days by TRAP staining-based assay. Format: functional, cell-based.
For data set [4], the system named is BMMC. The data set is described as follows: Downregulation of M-CSF/RANKL-induced integrin alphaV protein expression levels in C57BL/6 mouse BMMC at 20 uM after 3 days by Western blot analysis. Format: functional, cell-based. A general note: A western blot detects proteins with antibodies after separation by electrophoresis.
Data set [5] deals with BMMC. The data set is described as follows: Downregulation of M-CSF/RANKL-induced NFATc1 protein expression levels in C57BL/6 mouse BMMC after 3 days by Western blot analysis. Format: functional, cell-based.
Data set [6] deals with BMMC. The data set is described as follows: Inhibition of M-CSF/RANKL-induced matrix resorption capacity in C57BL/6 mouse BMMC at 10 to 20 uM after 4 days in hydroxyapatite-coated plates. Format: functional, cell-based.
Data set [7] deals with BMMC. The data set is described as follows: Downregulation of M-CSF/RANKL-induced CTSK protein expression levels in C57BL/6 mouse BMMC at 20 uM after 3 days by Western blot analysis. Format: functional, cell-based.
Data set [8] deals with BMMC. The data set is described as follows: Reduction in M-CSF/RANKL-induced V-ATPase mRNA levels in C57BL/6 mouse BMMC at 20 uM after 3 days by RT-qPCR analysis. Format: functional, cell-based.
The test system of data set [9] is BMMC. The data set is described as follows: Reduction in M-CSF/RANKL-induced Trap/Acp5 mRNA levels in C57BL/6 mouse BMMC at 20 uM after 3 days by RT-qPCR analysis. Format: functional, cell-based.
Data set [10] deals with BMMC. The data set is described as follows: Reduction in M-CSF/RANKL-induced Ctsk mRNA levels in C57BL/6 mouse BMMC at 20 uM after 3 days by RT-qPCR analysis. Format: functional, cell-based.
Data set [11] has as its target Matrix metalloproteinase-9 (Mus musculus) (UniProt P41245). The data set is described as follows: Inhibition of MMP9 activity in C57BL/6 mouse BMMC at 5 to 20 uM by coomassie blue staining-based gelatin zymography assay. Format: cell-based.
Data set [12] deals with Mus musculus. The data set is described as follows: Antiperiodontitic activity in BALB/c mouse model of Porphyromonas gingivalis-induced periodontitis assessed as reduction in maxillary tissue Mmp9 mRNA levels at 100 ug/kg, id dosed once in 2 days for 30 days. Format: functional, organism-based.
Data set [13] concerns Mus musculus. The data set is described as follows: Antiperiodontitic activity in BALB/c mouse model of Porphyromonas gingivalis-induced periodontitis assessed as reduction in alveolar bone resorption at 100 ug/kg, id dosed once in 2 days for 30 days. Format: functional, organism-based.
The subject of data set [14] is Mus musculus. The data set is described as follows: Antiperiodontitic activity in BALB/c mouse model of Porphyromonas gingivalis-induced periodontitis assessed as reduction in maxillary tissue Trap/Acp5 mRNA levels at 100 ug/kg, id dosed once in 2 days for 30 days. Format: functional, organism-based.
Data set [15] deals with Mus musculus. The data set is described as follows: Antiperiodontitic activity in BALB/c mouse model of Porphyromonas gingivalis-induced periodontitis assessed as reduction in maxillary tissue CtsK mRNA levels at 100 ug/kg, id dosed once in 2 days for 30 days. Format: functional, organism-based.
Data set [16] has as its system BMMC. The data set is described as follows: Reduction in M-CSF/RANKL-induced Itgb3 mRNA levels in C57BL/6 mouse BMMC at 20 uM after 3 days by RT-qPCR analysis. Format: functional, cell-based.
Data set [17] relates to BMMC. The data set is described as follows: Reduction in M-CSF/RANKL-induced MMP-9 mRNA levels in C57BL/6 mouse BMMC at 20 uM after 3 days by RT-qPCR analysis. Format: functional, cell-based.
Data set [18] concerns BMMC. The data set is described as follows: Inhibition of M-CSF/RANKL-induced osteoclast differentiation in C57BL/6 mouse BMMC assessed as decrease in multinucleated TRAP+ cells at 20 uM after 3 days by TRAP staining-based assay. Format: functional, cell-based.

These results are taken from ChEMBL document CHEMBL4190203, “Effects of Cinnamoyloxy-mammeisin from Geopropolis on Osteoclast Differentiation and Porphyromonas gingivalis-Induced Periodontitis” (J Nat Prod, 2017).

SMILES strings stand for the structures. Activity calls are given as the source filed them. The calls are words filed in the database; no cut-off is given here.

Sequence of Matrix metalloproteinase-9 (Mus musculus) (P41245 whole entry): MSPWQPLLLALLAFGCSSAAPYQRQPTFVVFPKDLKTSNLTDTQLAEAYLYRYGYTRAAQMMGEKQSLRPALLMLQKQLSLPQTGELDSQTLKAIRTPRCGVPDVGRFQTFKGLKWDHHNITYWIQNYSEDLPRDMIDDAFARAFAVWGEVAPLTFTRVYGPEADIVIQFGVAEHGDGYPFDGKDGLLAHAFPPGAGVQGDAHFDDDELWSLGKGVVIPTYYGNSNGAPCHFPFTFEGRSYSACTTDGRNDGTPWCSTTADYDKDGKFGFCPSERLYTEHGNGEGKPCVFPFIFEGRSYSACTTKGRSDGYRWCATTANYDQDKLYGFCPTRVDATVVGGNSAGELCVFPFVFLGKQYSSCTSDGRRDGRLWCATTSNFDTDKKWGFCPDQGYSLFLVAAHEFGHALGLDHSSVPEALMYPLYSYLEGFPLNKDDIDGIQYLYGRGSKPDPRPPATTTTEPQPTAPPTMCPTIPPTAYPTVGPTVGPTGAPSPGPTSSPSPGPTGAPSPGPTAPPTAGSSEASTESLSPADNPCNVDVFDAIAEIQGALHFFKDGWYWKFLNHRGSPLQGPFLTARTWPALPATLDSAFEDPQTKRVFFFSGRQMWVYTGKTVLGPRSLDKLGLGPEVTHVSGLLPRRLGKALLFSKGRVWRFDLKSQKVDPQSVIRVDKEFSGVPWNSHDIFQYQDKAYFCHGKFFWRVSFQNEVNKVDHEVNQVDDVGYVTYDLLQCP

Consider `CC(C)=CCc1c(O)c(C(=O)CC(C)COC(=O)/C=C/c2ccccc2)c(O)c2c(-c3ccccc3)cc(=O)oc12` (stereo not drawn), for which the Activity result is “Non-Toxic” in data set [1] and “Dose-dependent effect” in data set [5]. Also, the outcome in data set [2], in [4], in [7], in [8], in data set [9] and in data set [10] was Active. Further, the result in data set [13], in data set [14], in data set [15], in data set [16] and in [17] was Active. The inhibition entry in data set [3] was “Dose-dependent effect”. Besides, the inhibition result in data set [6], in data set [11] and in data set [18] was “Active” each time. Also, in data set [12], the result was inactive.
